Several values for one entry are separate records, joined by “and”; a condition that tells them apart may be missing. Equal entries are not always repeated.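 Each compound was tested at five concentrations against cells in 96-well plates for 48 hours. The concentration for 50% growth inhibition is given as GI50.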 Activity calls are given as the source filed them. Rule as the data show it: active = GI50 up to about 1.1 µM and inactive = higher.
Experiments:
Assay in all cases: growth of human tumour cells (NCI), 48 h
[1] = system: SF-539
[2] = system: HCT-15
[3] = system: 786-0
[4] = system: SW-620
[5] = system: UACC-257
[6] = system: RPMI-8226
[7] = system: DU-145
[8] = system: K562
[9] = system: UO-31
[10] = system: RXF 393
[11] = system: SK-OV-3
[12] = system: TK-10
[13] = system: LOX IMVI
[14] = system: SR
[15] = system: Malme-3M
[16] = system: HL-60
[17] = system: HOP-62
[18] = system: SK-MEL-2
[19] = system: UACC-62
[20] = system: Hs-578T
[21] = system: CCRF-CEM
[22] = system: NCI/ADR-RES
[23] = system: BT-549
[24] = system: MCF7
[25] = system: OVCAR-4
[26] = system: NCI-H226
[27] = system: NCI-H460
[28] = system: HCC 2998
[29] = system: NCI-H23
[30] = system: T47D
[31] = system: A498
[32] = system: OVCAR-5
[33] = system: MOLT-4
[34] = system: NCI-H522
[35] = system: SN12C
[36] = system: SF-295
[37] = system: SF-268
[38] = system: HT-29
[39] = system: OVCAR-3
[40] = system: U-251
[41] = system: EKVX
[42] = system: MDA-MB-231
[43] = system: ACHN
[44] = system: SNB-19
[45] = system: SK-MEL-28
[46] = system: HOP-92
[47] = system: IGROV-1
[48] = system: M14
[49] = system: OVCAR-8
[50] = system: CAKI-1
[51] = system: COLO 205
[52] = system: SK-MEL-5
[53] = system: HCT-116
[54] = system: PC-3
[55] = system: A549
[56] = system: SNB-75
[57] = system: MDA-MB-435
[58] = system: KM12

**Q.** What does the source list for c1ccc(P(CCP(CCP(c2ccccc2)c2ccccc2)c2ccccc2)CCP(c2ccccc2)c2ccccc2)cc1 (stereo not given)?
**A.** GI50 [1]: > 6.25 µM (inactive); GI50 [2]: 9.77 µM; GI50 [3]: 1.82 µM (inactive); GI50 [4]: 5.05 µM (inactive); GI50 [5]: > 10 µM (inactive); GI50 [6]: 1.68 µM (inactive); GI50 [7]: > 9.16 µM (inactive); GI50 [8]: 1.28 µM (inactive); GI50 [9]: > 10 µM (inactive) and > 6.82 µM (inactive); GI50 [10]: > 5.6 µM (inactive); GI50 [11]: > 10 µM (inactive); GI50 [12]: > 10 µM (inactive); GI50 [13]: 1.51 µM (inactive); GI50 [14]: 1.1 µM (active); GI50 [15]: > 10 µM (inactive); GI50 [16]: 630 nM (active); GI50 [17]: > 10 µM (inactive); GI50 [18]: 9.44 µM (inactive); GI50 [19]: 6.55 µM (inactive); GI50 [20]: 3.85 µM (inactive); GI50 [21]: 1.23 µM (inactive); GI50 [22]: > 10 µM (inactive) and > 5.58 µM (inactive); GI50 [23]: > 10 µM (inactive); GI50 [24]: 1.67 µM (inactive); GI50 [25]: 7.33 µM (inactive); GI50 [26]: > 5.22 µM (inactive); GI50 [27]: 1.72 µM (inactive); GI50 [28]: 2.06 µM (inactive); GI50 [29]: > 5.38 µM (inactive); GI50 [30]: 2.12 µM (inactive); GI50 [31]: > 10 µM (inactive) and > 8.65 µM (inactive); GI50 [32]: > 5.45 µM (inactive); GI50 [33]: 1.41 µM (inactive); GI50 [34]: 2.69 µM (inactive)

**Q.** Which results are given for COc1cccc(CC(C)NCC(O)c2ccc(O)c(O)c2)c1 (stereo not given)?
**A.** GI50 [1]: 37.2 µM (inactive); GI50 [2]: 44.6 µM; GI50 [3]: 37.8 µM (inactive); GI50 [4]: 33 µM (inactive); GI50 [5]: 34.1 µM (inactive); GI50 [35]: 25 µM (inactive); GI50 [36]: > 100 µM (inactive); GI50 [6]: 39.2 µM (inactive); GI50 [7]: 31.9 µM (inactive); GI50 [37]: 50.5 µM (inactive); GI50 [8]: 94.4 µM (inactive); GI50 [38]: > 100 µM (inactive); GI50 [9]: 39.3 µM (inactive); GI50 [10]: > 100 µM (inactive); GI50 [11]: 16.6 µM (inactive); GI50 [39]: 26.6 µM (inactive); GI50 [12]: 25.6 µM (inactive); GI50 [13]: 43.3 µM (inactive); GI50 [40]: 45.6 µM (inactive); GI50 [41]: 57.3 µM (inactive); GI50 [42]: 10.8 µM (inactive); GI50 [14]: 17.4 µM (inactive); GI50 [15]: 43.5 µM (inactive); GI50 [43]: 36.6 µM (inactive); GI50 [44]: 32.3 µM (inactive); GI50 [45]: 52.1 µM (inactive); GI50 [46]: 6.59 µM (inactive); GI50 [17]: 34.8 µM (inactive); GI50 [18]: > 100 µM (inactive); GI50 [19]: 37.5 µM (inactive); GI50 [20]: 57.1 µM (inactive); GI50 [47]: 92 µM (inactive); GI50 [21]: 21 µM (inactive); GI50 [22]: > 100 µM (inactive); GI50 [23]: 42.7 µM (inactive); GI50 [48]: 38 µM (inactive); GI50 [49]: 18.7 µM (inactive); GI50 [24]: 41.8 µM (inactive); GI50 [50]: 35 µM (inactive); GI50 [25]: 18.5 µM (inactive); GI50 [26]: 24.8 µM (inactive); GI50 [51]: 19 µM (inactive); GI50 [52]: 60.3 µM (inactive); GI50 [27]: 51.6 µM (inactive); GI50 [53]: 28.8 µM (inactive); GI50 [29]: 33.7 µM (inactive); GI50 [54]: 46.1 µM (inactive); GI50 [55]: 57 µM (inactive); GI50 [56]: 19 µM (inactive); GI50 [30]: 25.3 µM (inactive); GI50 [57]: 44.4 µM (inactive); GI50 [31]: > 100 µM (inactive); GI50 [32]: 17.3 µM (inactive); GI50 [33]: 14 µM (inactive); GI50 [34]: 34.8 µM (inactive); GI50 [58]: 55.5 µM (inactive)

— ChEMBL document CHEMBL1201862, “PubChem BioAssay data set” (2004)
